Series [1] concerns MiaPaCa-2 cells. Kind of series: Caspase (CPP32) activity assay as marker for apoptosis. The format is cell-based, human. The method, then: (§1) Cells from culture plates at 18, 44, 66 and 90 h time points were lysed in situ in cell lysis buffer [1% Triton X-100 in 0.05 M Tris-HCl (pH 8.0), […], 0.02% Na azide, 0.1 mg/ml phenylmethylsulfonylfluoride (PMSF), and 0.001 mg/ml Aprotinin]. Lysates were subjected to 10% SDS-PAGE followed by electrotransfer to nitrocellulose and immunoblotting with antibodies to GFP and p53 (Santa Cruz Biotechnology, Santa Cruz, Calif.). Antibody-labeled proteins were identified by chemiluminescence using ECL methodology (Amersham)(1). Assays for elevated caspase expression were performed using the Clontech (Palo Alto, Calif.) for caspase (CPP32) activity (2). As a positive control for the caspase activity assay, Mia-PaCa-2 cells were incubated with tumor necrosis factor (TNF) (Sigma, St. Louis, Mo.) at a concentration of 10 ng/ml for 24 h. In addition, to detect if significant cell necrosis occurred, the CytoTox96 assay was used (Promega, Madison, Wis.) for LDH released into the cell culture medium as performed on several breast cancer cell lines (2).

In series [2] the test system is cancer cells. Conditions: previous studies (1-3), also in cancer cells in which p53 protein was absent; cited from earlier work.
The test system of series [3] is MiaPaCa-2 cells. Kind of series: Incubation of MiaPaCa-2 cells with peptides; cell counts by trypan blue exclusion, MTT. The format is cell-based, human. On the procedure: Duplicate sets of 6×10^6 MiaPaCa-2 cells were incubated with different concentrations of PNC-28, i.e., 5, 10, 20, 40, 80 and 160 μmol/ml. […] All incubations were carried out using a protocol identical to that described in ref. 1 (1). After the cells had been allowed to adhere to the tissue culture dish (TCD) for 24 hours the medium was removed from each TCD, and new medium containing the same or no peptide concentration was added. Medium from each TCD was removed every 24 h, and fresh medium with its respective peptide at the appropriate concentration was added. Cells were inspected daily for changes in cell growth, morphology, and viability. At the end of each day over a five-day period, duplicate cell counts were performed for each incubation using the trypan blue exclusion method. In addition, cell viability was also determined by 3-[4,5-dimethylthiazol-2-yl]-2,5 diphenyl tetrazolium bromide (MTT) assay according to the manufacturers' instructions (Promega Corporation, Madison, Wis., USA).

Series [4] concerns MiaPaCa-2 cells. Put plainly: LDH release into cell culture medium (CytoTox96) as marker for necrosis. The format is cell-based, human. On the procedure: as §1
For orientation: Release of lactate dehydrogenase indicates damage to the cell membrane.

Series [5] has as its system MiaPaCa-2 cells. Put plainly: Time-lapse electron microscopy of MiaPaCa-2 cells treated with PNC-28. Type of series: cell-based, human. The conditions noted are these: 25 μmol/ml, 15 min, FIG. 4B. On the procedure:
Time-lapse electron microscopy (EM) was used to examine the ultrastructural features of cell death. MiaPaCa-2 cells were grown for 24 h on Thermanox cover slips (Lux Scientific), and then treated with 25 μmol of PNC-28 for 1 and 15 min, along with a corresponding control group without peptide. The cells were washed with PBS solution and then fixed with 2.5% gluteraldehyde-PBS. The fixed cultures were rinsed in a 0.1 M phosphate buffer (pH 7.3), post fixed in 2% (0.08 m) osmium tetroxide-PBS (pH 7.3), dehydrated in a graded series of ethanol and propylene oxide and embedded in Epon 812. Sections were cut at 700 Å, stained with uranyl acetate and lead citrate and examined with a Jeol JEM 1010 Electron Microscope.

Series [6] concerns MiaPaCa-2 cells. Put plainly: Immunoblotting of MiaPaCa-2 cell lysates for p53 and waf^p21, with caspase activity. The format is cell-based, human. The conditions noted are these: at near 100 percent cell death: 96 hr transfected cells, 48 hr PNC-28 75 μmol/ml, FIG. 6. The method, then:
For protein analyses, and detection of apoptosis, 2×10^6 cells were seeded into 10 cm diameter TCDs and transfected with DNA: Lipofectamine 2000 proportionally adjusted to the increased area. When the cell density reached 90-100%, the cells of the experimental and sham-transfected group were detached using trypsin and plated into four new TCD's in which they were allowed to grow in complete medium. At defined time points cells were released from adherence with 10 mM EDTA in PBS and were lysed in lysing buffer [1% Triton X-100 in 0.05 M Tris-HCl (pH 8.0), […], 0.02% Na azide, 0.01 mg/ml phenylmethylsulfonylfluoride (PMSF), and 0.001 mg/ml Aprotinin]. Protein equivalents of 10^6 cells, i.e., ˜30 μg/lane, were then subjected to SDS-PAGE using 10% Tris-HCl gels and, in some experiments, 16% Tricine Peptide Gels (Biorad, Hercules, Calif.) to detect PNC-28 (−3104 Da) and p53 17-26 (−1500 Da). […] Semi-quantitation of immunoblotting results was performed by measuring luminosity of bands in a single scanned developed x-ray film, using the histogram option of Adobe Photoshop 5.5. […] Opacity of each band was calculated by the equation, Opacity=255-Luminosity-background (15). […]
(In general: A western blot detects proteins with antibodies after separation by electrophoresis.)

Setting [7] is: all doses over the 20-75 μmol/ml range, FIG. 4D.

“Also recorded” adds a separate entry of the source.

Data on four molecules can be found in patent US8822419B2, “Membrane resident peptide in anti-cancer peptides causes tumor cell necrosis rather than apoptosis of cancer cells” (The Research Foundation of State University of New York, priority 2008, dated 2014).

Consider TNF-α [reference compound], for which, in series [1] (10 ng/ml, 24 h, FIG. 4C condition 1), the “caspase 3 activity, positive control” value is on record as “Maximal caspase release”.
For “PPLSQETFSDLWKLLKKWKMRRNQFWVKVQRG (PNC-27)”, the “mode of tumor cell death” value in series [2] was “induced tumor cell necrosis, not apoptosis”.
ETFSDLWKLLKKWKMRRNQFWVKVQRG (PNC-28): in series [3] (20 μmol/ml), the “time to cell death” value turned out to be 1 week. The cell death result was “roughly 35%” in series [3] (20 μmol/ml, 48 h, FIG. 2); “over 80%” in series [3] (80 μmol/ml, 48 h, FIG. 2); about 100% in series [3] (doses between 20 and 75 μmol/ml, time decreasing with dose). The “time to similar (near total) cell death” value in series [3] (40 μmol/ml) was 4 days. In series [3] (75 μmol/ml, 24 h, FIG. 1B), the cell morphology entry was “appear necrotic”. In series [3] (75 μmol/ml, 48 h), the “cell death as measured by trypan blue dye uptake” value is given as about 100%. In series [3] (80 μmol/ml), the “time to near total cell death” value is reported as 48 h. Besides, in series [4] (25 μmol/ml, 24 h, FIG. 4A), the LDH activity result is reported as “almost to the same extent as cells that were lysed with lysis buffer; also recorded: high levels of LDH”. Further, the LDH result in series [4] (25 umol/ml, 24 h, FIG. 4D) is “approximately 0.235 OD”; in series [4] (50 umol/ml, 24 h, FIG. 4D), “approximately 0.44 OD”; in series [4] (75 umol/ml, 24 h, FIG. 4D), “approximately 0.35 OD”. In addition, the LDH release result in series [4] (setting [7]) is “early release of LDH”. Moreover, the caspase level entry is given as “only baseline levels” in series [1] (25 μmol/ml, 24 h, FIG. 4C) and “only background levels of caspase” in series [1] (setting [7]). In addition, the caspase result in series [1] (25 umol/ml, 24 h, FIG. 4D) is “approximately 0.03”; in series [1] (50 umol/ml, 24 h, FIG. 4D) it was “approximately 0.02”; in series [1] (75 umol/ml, 24 h, FIG. 4D), “approximately 0.015”. Also, the “plasma membrane integrity in electron micrographs” value in series [5] is given as “exhibit lysis of their plasma membranes”. Further, the “levels of p53, waf^p21 and caspase activity” value in series [6] is listed as “not observed”. Also, in series [2], the “mode of tumor cell death” value is on record as “induced tumor cell necrosis, not apoptosis”.
Take `CC[C@H](C)[C@H](NC(=O)[C@H](CCCNC(=N)N)NC(=O)[C@H](CCCCN)NC(=O)CNC(=O)[C@@H](NC(=O)[C@H](CO)NC(=O)[C@H](Cc1ccccc1)NC(=O)[C@@H]1CCCN1C(=O)[C@@H](N)CCSC)[C@@H](C)O)C(=O)N[C@@H](CCSC)C(=O)N[C@@H](CC(C)C)C(=O)NCC(=O)N[C@@H](CCC(=O)O)C(=O)N[C@@H](CCCCN)C(=O)N[C@@H](CCCCN)C(=O)N[C@@H](Cc1c[nH]c2ccccc12)C(=O)N[C@@H](CCCCN)C(=O)N[C@@H](CCSC)C(=O)N[C@@H](CCCNC(=N)N)C(=O)N[C@@H](CCCNC(=N)N)C(=O)N[C@@H](CC(N)=O)C(=O)N[C@@H](CCC(N)=O)C(=O)N[C@@H](Cc1ccccc1)C(=O)N[C@@H](Cc1c[nH]c2ccccc12)C(=O)N[C@H](C(=O)N[C@@H](CCCCN)C(=O)N[C@H](C(=O)N[C@@H](CCC(N)=O)C(=O)N[C@@H](CCCNC(=N)N)C(=O)NCC(=O)O)C(C)C)C(C)C` [PNC-29, reference compound]: in series [3] (75 μmol/ml, 48 h, FIG. 3), the “cytotoxicity, number of remaining cells versus untreated” value is reported as “no effect on cell growth”.
